Numbered stars: 1 amine (or outer) side, 2 acyl side, 3 side chain; on linkers, the order of the positions; unused ones are H or OH. Square brackets hold non-standard residues; d marks the D form. Peptide text beside a SMILES is read from it. * marks the point of attachment. ξ: configuration not given here. Gly(1-amidinopiperidin-4-yl) = N=C(N)N1CCC([C@H](N)C(=O)O)CC1; X1 = CC(C)c1oc([C@H](CO)N[*:1])nc1C(=O)[*:2]; Pro(3R-Ph) = O=C(O)[C@H]1NCC[C@@H]1c1ccccc1; Tic = O=C(O)[C@@H]1Cc2ccccc2CN1; Cha = N[C@@H](CC1CCCCC1)C(=O)O; NMe(benzyl) = CN(Cc1ccccc1)*; ξDisc = O=C(O)C1NCc2ccccc21; Nle = CCCC[C@H](N)C(=O)O; X2 = OCCOCCN(Cc1ccccc1)*; NHBn = c1ccc(CN*)cc1; X3 = OCCOCCN*
Columns and labels:
Cathepsin L = Cathepsin L (Homo sapiens, UniProt P07711)
[1] = test system: T cell activation from 0404(DR14) chimeric MHCII-mice; assay: In vivo inhibition of T cell activation by co-immunisation, DR14 mice immunised with OVA; design: species or system mouse; % Reduction of response to PPD(OVA): concentration or dose not given beside the values; conditions: for % Reduction of response to OVA: DR14 mice co-immunised with OVA plus compound, mean % inhibition from the control over 3 concentrations of antigen (6.7, 20 and 60 ug); for % Reduction of response to PPD(OVA): specificity control: response to PPD in the same cell pool, OVA co-immunised mice
Source text: (§1) Mouse strains DR4 and DR14 carry chimeric MHC-II transgenes that encode the N-terminal domains of the respective DR molecules (forming the peptide binding site) and the remaining (2nd extracellular domains, transmembrane and intracytoplasmic domains) of the murine class II molecule I Ed. These strains are deficient of other murine class II, and thus, all helper T cell responses are triggered by peptides presented in the respective human MHC-II binding site. As an initial in vivo test of subject inhibitors designed to bind to DR, DR-transgenic mice were co-immunized with a pre-defined dose of protein antigen and different amounts of the compound antagonist to be tested. In this set-up, both antigen and compound were emulsified together in complete Freund's adjuvant (CFA), and thus, a direct competition between the two components for presentation by DR was tested. Readout of the assay is ex vivo antigen-specific activation of T cells from regional lymph nodes explanted 9 days after co-immunization. In a typical experiment, antigen dose-response was investigated, and the curves from mice immunized with antigen were compared to those from mice co-immunized with antigen+compound. The dose response curves were generated using lymph node cells pooled at equal numbers from 2-3 mice per experimental group. The experimental system also permits assessment of inherent antigenicity of the compound antagonist. This was done by setting up a dose-response study from the same cell pool using different concentrations of the compund under investigation instead of the antigen. As a specificity control, the response to Purified Protein Derivative (PPD), the major protein component of CFA, was tested in the same cell pool.
(§2) All Gpg conataining compounds have significant immunosupressive properties in one or both of the in-vivo models. Gpg-containing compounds also show improved activity or improved specificity over the Arg-containing equivilent. Further, compounds according to Formula I show activity in this assay.
(§3) Compounds of the invention were injected as an Emulsion prepared using CFA (Bacto Adjuvant Complete H37 Ra, Difco, Order-No. 3113-60); proteins 10 mg/ml in PBS, inhibitors 5 μM in 10% DMSO. CFA, PBS, antigen, and inhibitor were placed in the barrel of a 5-ml syringe (total volume not more than 1 mL). The mixture was sonicated at an amplitude less than 40% (30-35%) for two separated 15 s periods. The emulsion should seem to be hard and not liquid at this point. A drop of emulsion placed on the surface of water should not melt. The resulting emulsion was pushed through the needle into a 1 ml syringe with a needle (Gr.18, 26G×1″), and air bubbles were removed. Mice were co-immunized with 50 μg protein and 210 nM compound antagonist in final 100 μl emulsion into the tail base. Antigen+Compound and CFA are mixed 1:1 vol/vol. The best results are obtained using DR 4 mice immunised with HEL and DR 14 mice immunized with OVA.
(§4) Mice were injected at the tail-base as follows: Holding the tail of a mouse with thumb and middle finger, the index finger was placed under the base of the mouse's tail. The needle of the syringe was inserted about 1.5 cm from the tail base (hairy end) under the skin and pushed about 1 cm into the tail. 100 μl emulsion was injected into the mouse. After 9 days, mice were killed and lymph nodes removed.
(§5) The inhibitory effect of the candidate compounds on T-cell activation was tested using T-cells and antigen-presenting cells isolated from the lymph nodes of chimeric DR4-IE transgenic mice (Taconic, USA) previously co-immunized with hen egg lysozyme plus compound, or DR14-IE transgenic mice co-immunized with ovalbumin plus compound according to standard procedures (Adorini et al., 1988, Mueller et al., 1990; Current Protocols in Immunology, Vol. 2, 7.21; Ito et al., 1996). […]

[2] = test system: T cell activation from 0401(DR4) chimeric MHCII-mice; assay: In vivo inhibition of T cell activation by co-immunisation, DR4 mice immunised with HEL; design: species or system mouse; % Reduction of response to PPD(HEL): concentration or dose not given beside the values; conditions: for % Reduction of response to HEL: DR4 mice co-immunised with HEL plus compound, mean % inhibition from the control over 3 concentrations of antigen (6.7, 20 and 60 ug); for % Reduction of response to PPD(HEL): specificity control: response to PPD in the same cell pool, HEL co-immunised mice
Source text: as §1, §2, §3, §4, §5

[3] = test system: HLA-DR1 transgenic mice, collagen induced arthritis; assay: Collagen induced arthritis (CIA) mouse model for rheumatoid arthritis; format: in vivo; conditions: compared to solvent as control; s.c.
Method: CIA is induced by immunization with type II collagen in HLA-DR1 transgenic mice as described by Rosloniec et al (J. Exp. Med. 1997; 185: 113). After disease onset, mice are treated with compounds at the maximal tolerated dose s.c. for two weeks, and the disease development compared to that in mice treated with solvent only as follows:
Disease Severity Score • 1. Erythema and mild swelling confined to the tarsals or ankle joint • 2. Erythema and mild swelling extending from the ankle to the tarsals • 3. Erythema and moderate swelling extending from the ankle to the metatarsal joints • 4. Erythema and severe swelling encompass the ankle, foot, and digits

[4] = test system: DR4 transgenic mice, EAE induced by MOG; assay: Experimental autoimmune encephalomyelitis (EAE) mouse model for multiple sclerosis; format: in vivo; conditions: compared to solvent as control; s.c.
Method: EAE is induced in DR4 transgenic mice by injection of myelin oligodendrocyte glycoprotein (MOG) as described by Ito et al. (1996). After disease onset, mice are treated with compounds and studied as below:
Disease Score • 1. Tail atony • 2. Hind limb weakness • 3. Hind limb paralysis • 4. Hind limb paralysis and fore limb weakness or paralysis • 5. Moribund

Sequence of Cathepsin L (P07711 114-333): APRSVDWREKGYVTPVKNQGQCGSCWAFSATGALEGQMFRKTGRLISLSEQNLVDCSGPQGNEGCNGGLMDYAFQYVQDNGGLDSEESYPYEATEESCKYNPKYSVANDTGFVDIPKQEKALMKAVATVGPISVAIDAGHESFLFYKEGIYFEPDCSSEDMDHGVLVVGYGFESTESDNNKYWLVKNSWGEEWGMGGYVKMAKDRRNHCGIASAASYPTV

Structure (SMILES)	% Reduction of response to OVA [1] [%]	% Reduction of response to PPD(OVA) [1] [%]	% Reduction of response to HEL [2] [%]	% Reduction of response to PPD(HEL) [2] [%]	further results
CSCC[C@H](NC(=O)[C@@H]1Cc2ccccc2CN1C(=O)[C@H](CCCNC(=N)N)NC(=O)[C@H](CC1CCCCC1)NC(C)=O)C(N)=O [Compound P1, Ac-Cha-Arg-Tic-Met-NH2] (Ac-[Cha]R[Tic]M-NH2)	–	–	–	–	Stability (Arbitrary units) Cath L 4 h (Cathepsin L): 117 Arbitrary units
CSCC[C@H](NC(=O)C1c2ccccc2CN1C(=O)[C@H](CCCNC(=N)N)NC(=O)[C@H](CC1CCCCC1)NC(C)=O)C(N)=O (stereo partly drawn) [Compound P12-1, Ac-Cha-Arg-Disc-Met-NH2] (Ac-[Cha]R[ξDisc]M-NH2)	–	–	–	–	Stability (Arbitrary units) Cath L 4 h (Cathepsin L): 101 Arbitrary units
CSCC[C@H](NC(=O)[C@@H]1Cc2ccccc2CN1C(=O)[C@H](CCCNC(=N)N)NC(=O)[C@H](CC1CCCCC1)NC(C)=O)C(=O)N1CC[C@H](c2ccccc2)[C@H]1C(N)=O [Compound P31, Ac-Cha-Arg-Tic-Met-βPhPro-NH2] (Ac-[Cha]R[Tic]M[Pro(3R-Ph)]-NH2)	–	–	–	–	Stability (Arbitrary units) Cath L 4 h (Cathepsin L): 103 Arbitrary units
CSCC[C@H](NC(=O)C1c2ccccc2CN1C(=O)[C@@H](NC(=O)[C@H](CC1CCCCC1)NC(C)=O)C1CCN(C(=N)N)CC1)C(=O)N1CC[C@H](c2ccccc2)[C@H]1C(=O)N[C@@H](CO)c1nc(C(=O)N(C)C)c(C(C)C)o1 (stereo partly drawn) [Compound P41-1, Ac-Cha-Gpg-Disc-Met-βPhPro-[S(oxaz)L]-NMe2] (Ac-[Cha][Gly(1-amidinopiperidin-4-yl)][ξDisc]M[Pro(3R-Ph)][X1]-NMe2)	50.1	21.6	–	–	–
CCCC[C@H](NC(=O)[C@@H]1Cc2ccccc2CN1C(=O)[C@H](CCCNC(=N)N)NC(=O)[C@H](CC1CCCCC1)NC(C)=O)C(=O)N1CC[C@H](c2ccccc2)[C@H]1C(=O)N[C@@H](CO)c1nc(C(=O)N(C)C)c(C(C)C)o1 [Compound P51, Ac-Cha-Arg-Tic-Nle-βPhPro-[S(oxaz)L]-NMe2] (Ac-[Cha]R[Tic][Nle][Pro(3R-Ph)][X1]-NMe2)	43.1	3.5	–	–	–
CCCC[C@H](NC(=O)[C@@H]1Cc2ccccc2CN1C(=O)[C@@H](NC(=O)[C@H](CC1CCCCC1)NC(C)=O)C1CCN(C(=N)N)CC1)C(=O)N1CC[C@H](c2ccccc2)[C@H]1C(=O)N[C@@H](CO)c1nc(C(=O)N(C)C)c(C(C)C)o1 [Compound P53, Ac-Cha-Gpg-Tic-Nle-βPhPro-[S(oxaz)L]-NMe2] (Ac-[Cha][Gly(1-amidinopiperidin-4-yl)][Tic][Nle][Pro(3R-Ph)][X1]-NMe2)	56.3	26.8	68.4	10.2	efficacy in the CIA mouse model for rheumatoid arthritis [3]: Efficacy; efficacy in the EAE mouse model for multiple sclerosis prevention [4]: Efficacy
CSCC[C@H](NC(=O)[C@@H]1Cc2ccccc2CN1C(=O)[C@@H](NC(=O)[C@H](CC1CCCCC1)NC(C)=O)C1CCN(C(=N)N)CC1)C(=O)N1CC[C@H](c2ccccc2)[C@H]1C(=O)N[C@@H](CO)c1nc(C(=O)N(C)C)c(C(C)C)o1 [Compound P60, Ac-Cha-Gpg-Tic-Met-βPhPro-[S(oxaz)L]-NMe2] (Ac-[Cha][Gly(1-amidinopiperidin-4-yl)][Tic]M[Pro(3R-Ph)][X1]-NMe2)	50.3	28.1	–	–	–
CCCC[C@H](NC(=O)[C@@H]1Cc2ccccc2CN1C(=O)[C@@H](NC(=O)[C@H](CC1CCCCC1)NC(C)=O)C1CCN(C(=N)N)CC1)C(=O)NCc1ccccc1 [Compound P68, Ac-Cha-Gpg-Tic-Nle-N(H)Bn] (Ac-[Cha][Gly(1-amidinopiperidin-4-yl)][Tic][Nle]-NHBn)	95.3	65.9	−3.2	25.1	–
CCCC[C@H](NC(=O)[C@@H]1Cc2ccccc2CN1C(=O)[C@@H](NC(=O)[C@H](CC1CCCCC1)NC(C)=O)C1CCN(C(=N)N)CC1)C(=O)NCCOCCO [Compound P70, Ac-Cha-Gpg-Tic-Nle-N(H)CH2CH2OCH2CH2OH] (Ac-[Cha][Gly(1-amidinopiperidin-4-yl)][Tic][Nle]-X3)	56.1	52.3	–	–	–
CCCC[C@H](NC(=O)[C@@H]1Cc2ccccc2CN1C(=O)[C@H](CCCNC(=N)N)NC(=O)[C@H](CC1CCCCC1)NC(C)=O)C(=O)N(C)Cc1ccccc1 [Compound P71, Ac-Cha-Arg-Tic-Nle-N(Me)Bn] (Ac-[Cha]R[Tic][Nle]-{NMe(benzyl)})	48.8	21.8	78.1	62.1	–
CCCC[C@H](NC(=O)[C@@H]1Cc2ccccc2CN1C(=O)[C@@H](NC(=O)[C@H](CC1CCCCC1)NC(C)=O)C1CCN(C(=N)N)CC1)C(=O)N(CCOCCO)Cc1ccccc1 [Compound P101, Ac-Cha-Gpg-Tic-Nle-N(Bn)CH2CH2OCH2CH2OH] (Ac-[Cha][Gly(1-amidinopiperidin-4-yl)][Tic][Nle]-X2)	–	–	49.7	41.1	–
CSCC[C@H](NC(=O)[C@@H]1Cc2ccccc2CN1C(=O)[C@@H](NC(=O)[C@H](CC1CCCCC1)NC(C)=O)C1CCN(C(=N)N)CC1)C(=O)N(CCOCCO)Cc1ccccc1 [Compound P102, Ac-Cha-Gpg-Tic-Met-N(Bn)CH2CH2OCH2CH2OH] (Ac-[Cha][Gly(1-amidinopiperidin-4-yl)][Tic]M-X2)	–	–	41.3	31.2	–
